Assay: gradient 5% acetonitrile 3 min, to 50% in 2 min, to 85% in 15 min, held 3 min, 100 µL/min
Details: column: Zorbax Extend-C18 2.1 x 50 mm; eluents: water / acetonitrile, 0.1% formic acid
Procedure, shortened: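 Mixtures of ~100 pure standards were chromatographed on a Zorbax Extend-C18 column (2.1 × 50 mm, 1.8 μm) at 100 μL/min using water and acetonitrile, each with 0.1% formic acid. Detection used a quadrupole time-of-flight mass spectrometer in positive and negative ionization mode, and data collection spanned 3 months. Retention time was obtained from adduct peaks picked computationally and each checked manually.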

RP-LC retention time [s]	SMILES
1070	Cc1ccc(-c2nnc(-c3nn(C)c4c3CN(S(=O)(=O)c3ccc(Cl)cc3)CC4)o2)cc1
962	O=C(NCc1ccco1)C(=O)c1cccn1Cc1ccc(F)cc1
787	COc1ccc(-n2c(=O)n(C)c(=O)c3cc(C(=O)Nc4ccccc4C(N)=O)cnc32)cc1
985	Cc1nc2c(sc3nc(-c4ccccc4)ccc32)c(=O)n1CC(=O)Nc1ccc2c(c1)OCO2
981	COc1ccccc1-c1nnc(-c2cccc(S(=O)(=O)N3CCCCC3)c2)o1
968	CCc1ccc(NC(=O)N2CCC3(CC2)NC(=O)c2ccc(Cl)cc2N3CC)cc1
652	COc1ccc(CNC(=O)c2ccc(N3CCCS3(=O)=O)cc2)cc1OC
696	N#CC1=C(SCC(=O)Nc2nccs2)NC(=O)CC1c1ccccc1F (stereo not drawn)
872	Cc1nn(CC(=O)N2CCCCCC2)c(=O)c2nc(-c3ccccc3)sc12
977	COC(=O)C1=CN(C2CC2)c2cc(N3CCc4ccccc4C3)c(F)cc2S1(=O)=O
1150	Cn1cc(-c2nc(C(=O)Nc3cc(F)ccc3F)cs2)c2cccnc21
908	O=C(Cn1c(-c2cccs2)cc2ccccc21)N1CCN(C(=O)c2ccco2)CC1
702	CCCNc1nc(-c2ccccc2Cl)nc2ccccc12
630	CCC(=O)N1CCc2c(C(=O)N3CCOCC3)cccc21
592	O=C(Cn1c(=O)n(-c2ccc(F)cc2)c2ncccc21)NCCN1CCCCC1
605	O=C(CCCc1ccccc1)NCC(=O)N1CCN(c2ccccn2)CC1
670	OC(CN1CCN(c2ccccc2Cl)CC1)c1ccc2c(c1)OCO2 (stereo not drawn)
936	CCOc1ccc(NC(=O)Cn2c(=O)cc(-c3nc(CC)no3)c3ccccc32)cc1
845	O=C(Cn1c(=O)n(-c2ccccc2)c2ncccc21)NC1CCCCCC1
650	Cc1cccc(CN2CCn3c(nnc3[C@@H]3C[C@@H](O)CN3Cc3ccccc3)C2)c1
764	CN1C(=O)C2(CCN(C(=O)c3ccc(F)cc3)C2)c2ccccc21 (stereo not drawn)
889	COc1ccc(C(=O)N2CCC3(CC2)N=C(c2ccc(Br)cc2)C(=O)N3)cc1

RP-LC retention time [s]	SMILES
696	COc1ccc(CNC(=O)c2cc3c(s2)CCN(C(C)=O)C3)cc1
770	Cc1cc(Cl)ccc1NC(=O)CC1COc2ccccc2NC1=O (stereo not drawn)
1050	O=C(NCc1cccc(Br)c1)C1CCCN(c2ccc(=O)n(-c3ccc(F)cc3)n2)C1 (stereo not drawn)
897	Cc1oc(-c2ccc(NC(=O)CCc3ccccc3)cc2)nc1Cn1cccn1
860	CCN1c2ccccc2C(=O)NC12CCN(C(=O)Nc1ccc(C)c(C)c1)CC2
853	CC(=O)c1ccc(N2CCN(c3ccc(NC(=O)C4CCC4)c(C(=O)O)c3)CC2)cc1
880	O=C(Cn1ccc2ccn(Cc3ccccc3F)c2c1=O)NCc1ccc(F)cc1F
842	CCN1C(=O)c2cccnc2Sc2cc(NC(=O)c3ccc(Br)o3)ccc21
739	Cn1c(=O)sc2cc(S(=O)(=O)N3CCC(C(=O)NCc4ccco4)CC3)ccc21
801	Cc1cc(C(=O)NCC(O)c2cccc3ccccc23)c(C)o1 (stereo not drawn)
642	CN(CCNc1nc(-c2ccc(Cl)cc2)nc2ccccc12)C1CCCCC1
1040	Cc1ccc(C)c(S(=O)(=O)N2CC(c3nc(Cc4ccccc4)no3)C2)c1
713	Cc1sc2ccn(Cc3ccc(F)cc3)c(=O)c2c1C(=O)N1CCOCC1
961	O=C(NC1c2ccccc2-c2ccccc21)c1cccc([N+](=O)[O-])c1
940	COc1ccc(-c2csc(NC(=O)CCn3c(=O)oc4ccccc43)n2)cc1
726	O=C(c1ccc(F)cc1)N1CCCC1c1nc(-c2ccccc2)n[nH]1 (stereo not drawn)
640	Cc1ccc(NC(=O)Cn2nc3n(c2=O)CCCC3)cc1
792	Cc1ccccc1CN1CCN(CC(=O)Nc2cccc(Cl)c2C)C(=O)C1=O
624	Cc1nnc(NC(=O)C2CCN(C(=O)c3ccccc3F)CC2)s1
718	CCCN1CCn2cc(S(=O)(=O)Nc3ccccc3F)cc2C1=O
687	Cc1nc(-c2noc(-c3cccnc3)n2)cn1CC(=O)Nc1ccc(F)cc1

Further lines, the compound ahead of its results:

SMILES	RP-LC retention time [s]
O=C(CCc1ccc2c(c1)CNCCO2)NCC1CC1	574
Cc1nc(N2CCOCC2)c2c(C(=O)N3CCN(c4cccc(C)c4C)CC3)c(C)oc2n1	1000
COc1ccc2c(c1)C1CC(C)(O2)N(C)C(=O)C1S(=O)(=O)c1ccc(C)c(C)c1 (stereo not drawn)	1030
Cc1ccc(Nc2c(-c3cccc([N+](=O)[O-])c3)nc3ccc(Cl)cn23)cc1	1100
COc1ccc(-c2nc(-c3ccc4oc(C)nc4c3)no2)c(OC)c1	976
Cn1c(=O)c2c(-c3cccc(Br)c3)n(Cc3ccco3)cc2n(C)c1=O	971
Cc1cc(N2CCOCC2)nc(N2CCN(S(=O)(=O)c3ccc4c(c3)Cc3ccccc3-4)CC2)n1	813
Cc1cc(C)n2c(Nc3ccccc3)c(-c3cccc(Cl)c3)nc2n1	1130
CCOc1ccc2nc(NC(=O)COc3nccc(C)n3)sc2c1	744
CCOc1ccc(CN(CCOC)Cc2cc(=O)n3cc(Cl)ccc3n2)cc1	677
CCOC(=O)c1cc(S(=O)(=O)N2CCCC2C(=O)Nc2ccc(C)c(F)c2)cn1C (stereo not drawn)	988
O=C(C1CCC1)N1CCc2sc(S(=O)(=O)N3CCN(c4ccccc4)CC3)cc2C1	1060
C[C@]12CC[C@@H]3c4ccc(O)cc4C[C@@H](CCCCCCCCCS(=O)CCCC(F)(F)C(F)(F)F)[C@H]3[C@@H]1CC[C@@H]2O (stereo partly drawn)	1250
CC(C)c1cc(C(=O)Nc2cccc(Cl)c2)nn1C1CCS(=O)(=O)C1 (stereo not drawn)	994
Cc1nnc(NC(=O)c2csc(Nc3ccc(OC(F)F)cc3)n2)s1	781
CC(=O)N1CCc2cc(N3CC(C(=O)NC(C)c4ccc(C)cc4C)CC3=O)ccc21 (stereo not drawn)	772
CCCCC(=O)NC1=C(C(=O)OC)SCC1	905
Cc1ccc(NC(=O)N2CCC(OC3CCN(S(C)(=O)=O)CC3)CC2)cc1Cl	867
COc1ccc(OC)c(C(O)CN2CCC(c3nc(C)no3)CC2)c1 (stereo not drawn)	574
Cc1ccc2nc(C)cc(C(=O)NC3CC3)c2c1	586
O=C(NCC1CCN(C2CCCC2)CC1)C(=O)Nc1ccc(OC(F)(F)F)cc1	611
CCc1nc(-c2csc(S(=O)(=O)N3CCCC(C(=O)Nc4ccc(F)c(Cl)c4)C3)c2)no1 (stereo not drawn)	1130
CCn1cnc(S(=O)(=O)N2CCC(C(=O)NC3CCCCC3)CC2)c1	686

SMILES	RP-LC retention time [s]
O=C(NCC1CCCCC1)C1CCCN(c2nnc3ccc(Cl)cn23)C1 (stereo not drawn)	839
O=C1NCCCCCCN(C(=O)c2cccs2)[C@H]2CCC[C@@H]12	745
CC1(C(=O)NC2CCCCCCC2)CN(S(C)(=O)=O)CC(=O)N1Cc1ccc(Cl)cc1 (stereo not drawn)	993
Cc1ccc(-n2c(=O)c3sccc3n(Cc3nc(-c4ccc(C(F)(F)F)cc4)no3)c2=O)cc1	1190
Cc1ccc2[nH]cc(CCNC(=O)c3c(-c4ccccn4)noc3C)c2c1	964
CC(C)NC(=O)c1ccc(Cn2c(SCC#N)nc3cc4c(cc3c2=O)OCO4)cc1	759
Nc1nc(Nc2ccc3c(c2)CC[C@@H](N2CCCC2)CC3)nn1-c1cc2c(nn1)-c1ccccc1CCC2	760
CCOC(=O)c1noc2ncnc(NCc3cccc(OC)c3)c12	971
Cc1sc2ncnc(N3CCCC(C)C3)c2c1C(=O)Nc1cc(F)ccc1Cl (stereo not drawn)	1450
CCC(C)NC(=O)c1c(C)sc2ccn(C)c(=O)c12 (stereo not drawn)	654
C[C@H]1CN(C(=O)Nc2ccc3c(c2)CCC3)C[C@@H]1c1nc(-c2ccncc2)no1	888
O=C(CNC(=O)c1ccccn1)Nc1nc2ccccc2[nH]1	601
Cc1cc(C)cc(NC(=O)Cn2c(=O)n(-c3cccc(C)c3)c(=O)c3c2cc(C)n3C)c1	882
Cc1ccn2cc(-c3ccc(NC(=O)c4cccc(I)c4)cc3)nc2n1	734
CN(C)CCNC(=O)c1cn(C)nc1S(=O)(=O)N1CCN(c2ccc(Cl)cc2)CC1	672
CCN1C(=O)CCc2cc(NS(=O)(=O)c3ccc(C)c(F)c3)ccc21	800
Cc1ccc(-c2noc(CSc3nc4cc5c(cc4c(=O)n3C3CC3)OCO5)n2)cc1	874
CCCn1c(C)cnc1C1CN(S(=O)(=O)c2cc(Cl)ccc2Cl)C1	607
COc1ccc(C(=O)Nc2cc(-c3cccnc3)no2)c(OC)c1	802
CCOC(=O)N1CCc2c(sc(NC(=O)c3cc(C)on3)c2C(=O)OC)C1	949
Cc1noc(CNC(=O)CSCc2ccccc2)n1	684
Cn1cc(CCNC(=O)c2cncc(Br)c2)c2cccnc21	638

Reference: the METLIN SMRT retention time set (Domingo-Almenara et al. 2019)
